Measurements reported in patent US20250169500A1, “METHOD AND APPARATUS FOR CONTROLLING WEEDS BY POST-HARVEST TREATMENT OF WEED SEEDS” (BAYER CROPSCIENCE LP, priority 2022, published 2025).

Test system: Palmer Amaranth
Experiment: Field treatment of crop residue material with diluted indaziflam suspension concentrate at soybean harvest; Palmer Amaranth infestation in the next growing season
Type: in vivo
Conditions: about 1 g of indaziflam per hectare of spread crop residue material, applied at the expelling end of the seed pulverizer during harvest; assessed in the next growing season
Experimental: A crop of soybeans is grown infested with Palmer Amaranth. The soybean crop is grown to harvest and the Palmer amaranth is in the seed stage, just before seed drop. A combine harvester equipped with a follow-along seed pulverizer as described in WO 2009/100500 A is used to harvest the crop. The seed pulverizer is fitted with a liquid applicator at the expelling end to treat crop residue material expelled from the pulverizer with a diluted indaziflam suspension concentrate—before the expelled material touches the ground—such that the combine harvester-pulverizer deposits treated crop residue material such that the land so harvested is treated with about 1 g of indaziflam per hectare of spread crop residue material, without treating the land directly.
In the next growing season, another soybean crop has less than 10% of the volume of Palmer Amaranth compared to the present soybean harvest.

`Cc1ccc2c(c1)[C@H](Nc1nc(N)nc(C(C)F)n1)[C@@H](C)C2` (mixture of isomers) [indaziflam, 2-N-[(1R,2S)-2,3-dihydro-2,6-dimethyl-1H-inden-1-yl]-6-[(1RS)-1-fluoroethyl]-1,3,5-triazine-2,4-diamine] was tested, and the “volume of Palmer Amaranth in next season's soybean crop compared to the present soybean harvest” value was “less than 10%”.
